Laboratory results taken from patent publication US5753516A, “Screening method for ligands of the EBI-1 receptor” (priority 1995, dated 1998).
Read-outs that look alike come from different tables or passages of the source.

What was measured:
NALM 6 cells [1] = assay: Light scatter analysis of morphological response of NALM 6 cells; format: cell-based, human
Procedure: FIG. 2, Panels A and B. Methionine-enkephalin induces a morphological change in NALM 6 cells. […] Analysis of forward and right angle light scatter was performed using a Becton Dickinson FACS SCAN flow cytometer as described (Sklar et al., 1984). Histograms of light scatter were obtained by analyzing 10,000 cells per sample. Data are expressed as mean channel number (y-axis) vs concentration of MET-ENK (x-axis).
Forward and right angle light scatter analysis of the morphological response to MET-ENK: The effect of MET-ENK on cell morphology were measured using flow cytometric analysis of forward and right angle light scatter as previously described (Sklar et al., 1984). For these studies 10^6 cells were resuspended in one-ml of PBS, activated by the addition of MET-ENK or maintained in the PBS buffer alone, and then, incubated for 5 minutes at 37° C. […] Samples were analyzed on a Becton Dickinson FACS SCAN flow cytometer with excitation at 488 nm (Sklar et al., 1984). Histograms of light scattering were obtained by analyzing 10,000 cells for each sample. Data analysis was performed using the Lysys System software package.

LAZ 221 cells = assay: Flow cytometry of surface molecule expression on LAZ 221 cells; format: cell-based, human
Procedure: FIG. 4, Panels A-C. […] Data are presented as mean fluorescence intensities measured for 10,000 cells labeled with anti-CD9 or CD10 mAb. In Panel A, the NALM 6 Cells were incubated with MET-ENK (10^-7 M) for the times indicated. In Panel B, the LAZ 221 cells were incubated with MET-ENK at the doses indicated for 5 minutes at 37° C. […] The anti-CD9 and anti-CD10 mAb used for these experiments were of the IgG2a isotype.
Immunofluorescence Staining and Flow Cytometric Analysis of Cell Surface Molecules: Cells were resuspended at 1×10^6 /ml in PBS and then incubated for periods of 5 to 120 minutes at 37° C. with MET-ENK at doses of 0 to 10^-5 M. Incubations were terminated by transferring samples to an ice bath and then pelleting the cells by centrifugation at 1800 rpm for 5 minutes at 4° C.
Immunofluorescence staining was carried out in 4-ml tubes maintained in an ice water bath. […] Cells were subsequently fixed within a 2% solution of formalin and maintained in the dark at 10° C. until analyzed.
Flow cytometric analysis was performed using a FACS SCAN Flow Cytometer (Becton Dickinson, Mountain View, Calif.) equipped with a HP9000 Series computer and the Lysys System software analysis package. Data were collected as histograms depicting the fluorescence intensity for 5,000 to 10,000 cells per sample.
The non-binding IgG1 MOPC myeloma protein, anti-macrophage/monocyte specific CD14 (MO2; IgG2) and anti-T cell specific CD3 (OKT3; IgG2a) mAb were employed as nonreactive controls for measuring the autofluorescence of B cells.

NALM 6 cells [2] = assay: MET-ENK-FITC binding to NALM 6 cells (flow cytometry, Scatchard); design: species or system human; conditions: NALM 6
Jurkat cells = assay: [Ca^2+ ]i response of Jurkat cells (Indo-1, flow cytometry); format: cell-based, human
Procedure: FIG. 14, Panel A and B. Methionine enkephalin and opiate receptor agonists selective for […] stimulate transmembrane signaling in Jurkat cells. Cells were labeled with Indo-1, washed twice in serum-free medium and held at 4° C. until analyzed. Indo-1 fluorescence was measured using flow cytometry as previously described (Heagy et al., 1992; Ledbetter et al., 1987; Chang et al., 1989; Rabinovitch et al., 1986). The fluorescence for nonstimulated cells (measured in medium, alone) was arbitrarily set at 1.0. Data are presented as per cent increase in the response [(r-baseline) x 100%]. Baseline [Ca^2+ ]i value measured for Jurkat cells (n=4) was 80±40 nM. Baseline Panel A, Jurkat cell response to MET-ENK (0.1 nM, 10 nM and 1 μM) and to the d- selective agonist Dermenkephalin (10 nM). Panel B, Jurkat cell response to the d- selective agonist (D-Pen ^2,5, p Cl-Phe^4)-ENK (0.1 nM. 10 nM. 1 μM).
The inventors (Heagy et al., 1992) have previously shown that when applied to NALM 6 cells the κ-1 agonist U69,953 stimulates a rapid increase in [Ca^2+ ]i. […] In order to determine whether the sites the inventors have identified using the δ-selective agonists also elicit Ca^2+ responses the inventors measured the effects of opioid peptides and δ-selective agonists on the calcium response. […] These studies provide evidence that Jurkat cells have functional δ opiate receptor sites which stimulate transmembrane signaling via rapid increases in [Ca^2+ ]i.

EBI1 = target: T1, EBI1 (Homo sapiens, UniProt P32248)
T1 sequence (P32248 25-378): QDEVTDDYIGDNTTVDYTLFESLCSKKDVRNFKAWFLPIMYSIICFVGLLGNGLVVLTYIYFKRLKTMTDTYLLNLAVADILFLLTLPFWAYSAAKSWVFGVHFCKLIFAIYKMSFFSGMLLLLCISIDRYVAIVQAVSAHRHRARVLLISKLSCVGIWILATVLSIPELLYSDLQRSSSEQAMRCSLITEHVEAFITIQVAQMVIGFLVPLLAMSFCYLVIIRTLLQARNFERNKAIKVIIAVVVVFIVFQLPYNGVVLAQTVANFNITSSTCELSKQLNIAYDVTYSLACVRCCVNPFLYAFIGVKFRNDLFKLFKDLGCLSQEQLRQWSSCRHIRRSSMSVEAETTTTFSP

NALM 6 cells [3] = conditions: cited from earlier work
human T cells = conditions: Heagy et al., 1990; cited from earlier work
PBMC = conditions: cited from earlier work
murine splenocytes = conditions: cited from earlier work
[4] = LAZ 221, 10^-7 M MET-ENK, untreated 1.0
[5] = LAZ 221, 10^-7 M MET-ENK, untreated 1.7

Compound: CSCC[C@H](NC(=O)[C@H](Cc1ccccc1)NC(=O)CNC(=O)CNC(=O)[C@@H](N)Cc1ccc(O)cc1)C(=O)O [MET-ENK, Tyr-Gly-Gly-Phe-Met]
- morphological response (light scatter) of NALM 6 cells (NALM 6 cells [1]; 5 minutes at 37° C.): increase in light scatter (right angle and forward)
- lowest MET-ENK concentration causing morphological response (NALM 6 cells [1]; NALM 6): 0.01 nM
- time of exposure for morphological response (NALM 6 cells [1]; NALM 6): ≤ 5 minutes
- surface expression of CD9 (LAZ 221 cells; LAZ 221): transient increase in their surface expression of CD9 but not CD10 molecules
- CD2 (LFA-2) fluorescence ratio (LAZ 221 cells; LAZ 221, 10^-7 M MET-ENK, untreated 0.9): 1.0
- CD4 fluorescence ratio (LAZ 221 cells; [4]): 1.0
- CD11a (LF1α) fluorescence ratio (LAZ 221 cells; [4]): 1.1
- CD18 (Integrin β chain) fluorescence ratio (LAZ 221 cells; [4]): 1.1
- CD20 fluorescence ratio (LAZ 221 cells; [4]): 1.1
- CD11b (Mac 1) fluorescence ratio (LAZ 221 cells; LAZ 221, 10^-7 M MET-ENK, untreated 1.4): 1.5
- CD54 (ICAM-1) fluorescence ratio (LAZ 221 cells; LAZ 221, 10^-7 M MET-ENK, untreated 1.5): 1.5
- CD19 fluorescence ratio (LAZ 221 cells; [5]): 1.9
- CD29 (VLA-β chain) fluorescence ratio (LAZ 221 cells; [5]): 1.9
- CD58 (LFA-3) fluorescence ratio (LAZ 221 cells; [5]): 1.9
- VLA-β; DE9N fluorescence ratio (LAZ 221 cells; LAZ 221, 10^-7 M MET-ENK, untreated 5.8): 5.6
- lowest dose increasing CD9 expression (LAZ 221 cells; LAZ 221, 5 minutes at 37° C.): 10^-11 M
- Bmax, low affinity sites (NALM 6 cells [2]): 4.48×10^4 sites/cell
- number of high affinity sites (NALM 6 cells [2]): 25.9 pM
- number of low affinity sites (NALM 6 cells [2]): 149 pM
- Bmax, low affinity sites (NALM 6 cells [2]; listed as methionine enkephalin): 4.48×10^4 sites/cell
- Kd (NALM 6 cells [2]; read-out: Kd, high affinity site): 0.00101 µM
- Kd (NALM 6 cells [2]; read-out: Kd, low affinity site): 0.318 µM
- [Ca^2+ ]i response (Jurkat cells): elicited a rapid rise in [Ca^2+ ]i
- cAMP (EBI1): 109.6 fmoles/cell × 10^3
- lag phase before [Ca^2+ ]i rise (NALM 6 cells [3]): ~ 30 sec
- human T cell migration (human T cells): potent stimulants for the migration of isolated human T cells
- blastogenic responses to T and B cell lectins (PBMC; PBMC): augment the blastogenic responses of PBMC to both T and B cell lectins
- IFN-γ production (PBMC; lectin stimulated PBMC): enhance IFN-γ production
- humoral / antibody response (murine splenocytes): diminished
